Measurements taken from patent US11020375B2, “Edaravone dosage form” (SUZHOU AUZONE BIOLOGICAL TECHNOLOGY CO., LTD, priority 2016, dated 2021).

Experiments:
[1] = Stability studies in simulated gastrointestinal fluids at various pHs; type: physicochemical
Description: Simulated gastrointestinal fluids (without enzymes and bile component) were prepared according to the USP methods. SGF (simulated gastric fluid) 1.2 pH (USP) and SIF (Simulating Intestinal fluid) 6.8 pH (USP) and 7.4 pH. To determine the chemical stability of SD formulations, the solutions in miliQ water was prepared and used. SD formulation was dissolved in aforesaid buffer solutions. Samples were collected at the predetermined time interval and filtered through 0.45 μm PVDF syringe filter. All samples were analysed in triplicate by HPLC.

[2] = Screening drug carrier Soluplus and optimizing solid dispersion: solubility of Edaravone by HPLC; type: physicochemical; conditions: 1%-6% w/v carrier solutions, 24 hours at room temperature (FIG. 2)
Description: To separate glass vials, 1%, 2%, 3%, 4%, 5% and 6% w/v solutions of different carriers was added, respectively. An excess amount of Edaravone was added to the above mentioned solutions followed by continuous rotation using a mechanical shaker (Axyos Technologies, Brisbane, Australia) throughout the test for 24 hours at room temperature. After reaching equilibrium, each vial was centrifuged at 3000 rpm for 5 min, and excess insoluble Edaravone was discarded by filtration through 0.45 μm PVDF syringe filter. Subsequently, the filtrates were diluted using methanol. The solubility analysis was performed in triplicate by using the previously developed and validated HPLC method.

stability in biorelevant media ([1]; acidic pH (FIG. 8A)): maintained substantially constant
stability in biorelevant media ([1]; neutral to basic pH (FIG. 8A)): significant degradation
SMILES: CC1=NN(c2ccccc2)C(=O)C1 [Edaravone, 3-methyl-1-phenyl-2-pyrazol-5-one]
solubility of Edaravone in Soluplus carrier solutions [2]: solubility improvement in concentration-dependent manner
